This is an account of results in article PMC12120022, “Discovery and chemical optimisation of a potent, Bi-cyclic antimicrobial inhibitor of Escherichia coli PBP3” (Communications Biology, 2025).

The target of test [1] is T1, EcPBP3 (Escherichia coli, UniProt P0AD68).
T1 construct: For assays, selections and SPR a construct with residues 60–588 which has the N-terminal domain, but not the transmembrane helix, was used; made in house
In words: SPR binding assay on immobilised EcPBP3. To be noted: 37 °C, kinetic fitting, NB = no binding at 2500 nM (Tables S-4, S-5) or 5000 nM (Table 1); for Kd: read-out: Kd (nM) by SPR (geomean). On the procedure:
Surface plasmon resonance (SPR) assays were performed using EcPBP3 immobilized on CM5 sensor chips (GE Healthcare) via amine-coupling chemistry in assay buffer (10 mM HEPES pH 8.0, 200 mM NaCl, 0.05% (v/v) surfactant P20). The chip surface was activated by injection (10 μL min^–1) of 0.4 M EDC and 0.1 M NHS (in a 1:1 ratio) with a 7 min contact time. Protein was diluted to 25 μg mL^–1 in 10 mM MOPS (pH 7.0) and injected over the activated sensor chip surface to reach immobilization of 1500-2500 response units. Excess hydroxysuccinimidyl groups on the chip surface were deactivated by injection (10 μL min^–1) of 1 M ethanolamine hydrochloride pH 8.0 with a 7 min contact time. Reference flow cells were prepared as described, but without ligand (EcPBP3 protein).
Binding analysis runs were performed at 37 °C in running buffer (10 mM HEPES pH 8.0, 200 mM NaCl, 0.05% (w/v) Tween-20, 2% (v/v) DMSO). Test compounds (and control runs of buffer only) were injected in running buffer over the EcPBP3 chip and reference flow cell, at flow rate of 50 μL min^–1 for 150 s contact time and 2400 s dissociation time. Each injection was followed by a wash with 50% (v/v) DMSO. All compounds were tested in at least two independent biological replicates unless otherwise stated.
Raw sensorgrams data were solvent-corrected, reference-subtracted and blank-buffer-subtracted (double-referencing) before kinetic and affinity analysis to account for non-specific binding and injection artifacts. Equilibrium dissociation constant (Kd) values was determined using the Biacore™ Insight Evaluation Software (version 4.0.8 or version 5.0.17) using kinetic fitting. Kd values presented are the geometric mean of at least two biological replicates.
In general terms: Surface plasmon resonance follows binding to a sensor surface in real time, without labels.

The target in test [2] is T1, EcPBP3. In words: Fluorescence polarisation competition assay with fluorescent Bicycle tracer (tracer 1 / BCY12820). The following applies: protein 9.4 nM sets sensitivity limit, top concentration 5 µM, read-out: Ki (nM) by fluorescence polarisation with tracer 1 (BCY12820 as tracer), Geometric mean (Lower 95% CI; Upper 95% CI, n=number of values). The format is binding. On the procedure: Competition fluorescence polarisation assays were run by observing the fluorescence polarisation of a fluorescent “tracer” Bicycle molecule which competes against an unlabelled peptide for binding to the EcPBP3 target. 10 µL of protein (9.4 nM) was mixed with either 5 µL of peptide or 5 µL of buffer and then the assay was initiated by the addition of 10 µL of tracer (1 nM) (final volume 25 µL), in a black 384 low bind, low volume plate (Corning). The buffer was 10 mM HEPES (Sigma), 2% (v/v) glycerol (Sigma), 300 mM NaCl (Sigma), adjusted to pH 8. The plate was incubated for 1 h at 25 °C and then read in a PHERAstar FS (BMG) using with an “FP 485 520 520” optic module (excitation 485 nm, emission 520 nm). The gain was determined immediately prior to the read on a tracer-only well.
Dotmatics (Dotmatics) workflows performing the above calculations were used to process the data. Values quoted are the geometric means of at least 2 repeats.

Molecules are shown by their SMILES. Where a SMILES comes first, the peptide text is derived from it.

T1 sequence (P0AD68 60-588): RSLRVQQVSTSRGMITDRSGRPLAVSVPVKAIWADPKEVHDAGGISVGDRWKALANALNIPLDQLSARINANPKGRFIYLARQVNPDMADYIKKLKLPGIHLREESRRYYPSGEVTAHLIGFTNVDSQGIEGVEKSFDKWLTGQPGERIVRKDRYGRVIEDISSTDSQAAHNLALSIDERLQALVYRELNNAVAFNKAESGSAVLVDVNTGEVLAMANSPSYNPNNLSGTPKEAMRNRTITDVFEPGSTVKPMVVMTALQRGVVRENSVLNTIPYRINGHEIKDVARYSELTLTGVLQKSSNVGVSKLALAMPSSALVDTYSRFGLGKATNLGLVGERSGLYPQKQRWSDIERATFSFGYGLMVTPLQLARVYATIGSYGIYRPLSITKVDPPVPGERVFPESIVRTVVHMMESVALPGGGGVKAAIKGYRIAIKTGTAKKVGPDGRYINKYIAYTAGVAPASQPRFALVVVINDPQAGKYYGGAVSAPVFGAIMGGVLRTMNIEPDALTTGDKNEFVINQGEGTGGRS

As to `CC(C)[C@@H]1NC(=O)[C@H](Cc2c[nH]c3ccccc23)NC(=O)[C@@H]2CCCN2C(=O)[C@@H]2CSCCC(=O)N3CN(CN(C3)C(=O)CCSC[C@H](NC(=O)[C@H](C)N)C(=O)N[C@@H](C)C(=O)N[C@@H](Cc3ccccc3)C(=O)N3CCC[C@H]3C(=O)N[C@@H](CCCCN)C(=O)N2)C(=O)CCSC[C@@H](C(=O)N[C@@H](C)C(N)=O)NC(=O)CNC(=O)[C@H](CCC(=O)O)NC1=O` [Peptide 16] (HELM PEPTIDE1{A.C.A.F.P.K.C.P.W.V.E.G.C.A.[am]}|CHEM1{[O=C(CC[*:1])N1CN(C(=O)CC[*:2])CN(C(=O)CC[*:3])C1]}$PEPTIDE1,CHEM1,2:R3-1:R1|PEPTIDE1,CHEM1,7:R3-1:R2|PEPTIDE1,CHEM1,13:R3-1:R3$$$V2.0), the Kd at EcPBP3 [1] is 6.44 nM. Further, at EcPBP3 [2], the Ki is less than 9 nM.

On to `CC(C)[C@@H]1NC(=O)[C@H](Cc2c[nH]c3ccccc23)NC(=O)[C@@H]2CCCN2C(=O)[C@@H]2CSCCC(=O)N3CN(CN(C3)C(=O)CCSC[C@H](NC(=O)[C@H](C)N)C(=O)N[C@@H](CO)C(=O)N[C@@H](Cc3ccccc3)C(=O)N[C@@H](C)C(=O)N[C@@H](CCCCN)C(=O)N2)C(=O)CCSC[C@@H](C(=O)N[C@@H](C)C(N)=O)NC(=O)CNC(=O)[C@H](CCC(=O)O)NC1=O` [Peptide 18], for which the Kd at EcPBP3 [1] is 178 nM. The Ki on EcPBP3 [2] is 76.9 nM.

On to `CC(C)[C@@H]1NC(=O)[C@H](Cc2c[nH]c3ccccc23)NC(=O)[C@@H]2CCCN2C(=O)[C@@H]2CSCCC(=O)N3CN(CN(C3)C(=O)CCSC[C@H](NC(=O)[C@H](C)N)C(=O)N[C@@H](CO)C(=O)N[C@@H](Cc3ccccc3)C(=O)N3CCC[C@H]3C(=O)N[C@@H](C)C(=O)N2)C(=O)CCSC[C@@H](C(=O)N[C@@H](C)C(N)=O)NC(=O)CNC(=O)[C@H](CCC(=O)O)NC1=O` [Peptide 19], for which the Kd on EcPBP3 [1] came to 12.4 nM. On EcPBP3 [2], the Ki is less than 9 nM.

On to `CC(C)[C@@H]1NC(=O)[C@H](C)NC(=O)[C@@H]2CCCN2C(=O)[C@@H]2CSCCC(=O)N3CN(CN(C3)C(=O)CCSC[C@H](NC(=O)[C@H](C)N)C(=O)N[C@@H](CO)C(=O)N[C@@H](Cc3ccccc3)C(=O)N3CCC[C@H]3C(=O)N[C@@H](CCCCN)C(=O)N2)C(=O)CCSC[C@@H](C(=O)N[C@@H](C)C(N)=O)NC(=O)CNC(=O)[C@H](CCC(=O)O)NC1=O` [Peptide 21] (HELM PEPTIDE1{A.C.S.F.P.K.C.P.A.V.E.G.C.A.[am]}|CHEM1{[O=C(CC[*:1])N1CN(C(=O)CC[*:2])CN(C(=O)CC[*:3])C1]}$PEPTIDE1,CHEM1,2:R3-1:R1|PEPTIDE1,CHEM1,7:R3-1:R2|PEPTIDE1,CHEM1,13:R3-1:R3$$$V2.0), for which the Kd at EcPBP3 [1] was greater than 2500 nM. The inhibition constant (Ki) at EcPBP3 [2] is greater than 5000 nM.

As to `C[C@H](N)C(=O)N[C@H]1CSCCC(=O)N2CN3CN(C2)C(=O)CCSC[C@H](NC(=O)[C@H](CCCCN)NC(=O)[C@@H]2CCCN2C(=O)[C@H](Cc2ccccc2)NC(=O)[C@H](CO)NC1=O)C(=O)N1CCC[C@H]1C(=O)N[C@@H](Cc1c[nH]c2ccccc12)C(=O)N[C@@H](C)C(=O)N[C@@H](CCC(=O)O)C(=O)NCC(=O)N[C@H](C(=O)N[C@@H](C)C(N)=O)CSCCC3=O` [Peptide 22] (HELM PEPTIDE1{A.C.S.F.P.K.C.P.W.A.E.G.C.A.[am]}|CHEM1{[O=C(CC[*:1])N1CN(C(=O)CC[*:2])CN(C(=O)CC[*:3])C1]}$PEPTIDE1,CHEM1,2:R3-1:R1|PEPTIDE1,CHEM1,7:R3-1:R2|PEPTIDE1,CHEM1,13:R3-1:R3$$$V2.0), on EcPBP3 [1], the Kd came out at 669 nM. Further, on EcPBP3 [2], the Ki was greater than 5000 nM.

On to `CC(C)[C@@H]1NC(=O)[C@H](Cc2c[nH]c3ccccc23)NC(=O)[C@@H]2CCCN2C(=O)[C@@H]2CSCCC(=O)N3CN(CN(C3)C(=O)CCSC[C@H](NC(=O)[C@H](C)N)C(=O)N[C@@H](CO)C(=O)N[C@@H](Cc3ccccc3)C(=O)N3CCC[C@H]3C(=O)N[C@@H](CCCCN)C(=O)N2)C(=O)CCSC[C@@H](C(=O)N[C@@H](C)C(N)=O)NC(=O)CNC(=O)[C@H](C)NC1=O` [Peptide 23], for which the Kd on EcPBP3 [1] turned out to be 6.71 nM. The Ki on EcPBP3 [2] is 9.08 nM.

Consider `CC(C)[C@@H]1NC(=O)[C@H](Cc2c[nH]c3ccccc23)NC(=O)[C@@H]2CCCN2C(=O)[C@@H]2CSCCC(=O)N3CN(CN(C3)C(=O)CCSC[C@@H](C(=O)N[C@@H](C)C(N)=O)NC(=O)[C@H](C)NC(=O)[C@H](CCC(=O)O)NC1=O)C(=O)CCSC[C@H](NC(=O)[C@H](C)N)C(=O)N[C@@H](CO)C(=O)N[C@@H](Cc1ccccc1)C(=O)N1CCC[C@H]1C(=O)N[C@@H](CCCCN)C(=O)N2` [Peptide 24], for which the Kd on EcPBP3 [1] is 24.4 nM. For the same compound, on EcPBP3 [2], the Ki was found to be 25.5 nM.

In the case of `CC(C)[C@@H]1NC(=O)[C@H](Cc2c[nH]c3ccccc23)NC(=O)[C@@H]2CCCN2C(=O)[C@@H]2CSCCC(=O)N3CN(CN(C3)C(=O)CCSC[C@H](NC(=O)[C@H](C)N)C(=O)N[C@@H](CO)C(=O)N[C@@H](Cc3ccccc3)C(=O)N3CCC[C@H]3C(=O)N[C@@H](CCCCNC(=N)N)C(=O)N2)C(=O)CCSC[C@@H](C(=O)N[C@@H](C)C(N)=O)NC(=O)CNC(=O)[C@H](CCC(=O)O)NC1=O` [Peptide 25], at EcPBP3 [1], the “Kd (nM) by SPR (geomean)” value is “no loss in binding or MIC” and the Kd came out at 2.85 nM. The Ki on EcPBP3 [2] was less than 9 nM.

For the compound `CC(C)C[C@@H]1NC(=O)[C@@H](NC(=O)[C@H](C)N)CSCCC(=O)N2CN3CN(C2)C(=O)CCSC[C@H](NC(=O)[C@H](CCCCNC(=N)N)NC(=O)[C@@H]2CCCN2C(=O)[C@H](Cc2ccccc2)NC1=O)C(=O)N1CCC[C@H]1C(=O)N[C@@H](Cc1c[nH]c2ccccc12)C(=O)N[C@@H](C(C)C)C(=O)N[C@@H](CCC(=O)O)C(=O)NCC(=O)N[C@H](C(=O)N[C@@H](C)C(N)=O)CSCCC3=O` [Peptide 27] (HELM PEPTIDE1{A.C.L.F.P.[N=C(N)NCCCC[C@H](N[*:1])C(=O)[*:2]].C.P.W.V.E.G.C.A.[am]}|CHEM1{[O=C(CC[*:1])N1CN(C(=O)CC[*:2])CN(C(=O)CC[*:3])C1]}$PEPTIDE1,CHEM1,2:R3-1:R1|PEPTIDE1,CHEM1,7:R3-1:R2|PEPTIDE1,CHEM1,13:R3-1:R3$$$V2.0), on EcPBP3 [1], the Kd worked out at 3.36 nM. Further, the Ki at EcPBP3 [2] is less than 9 nM.

In the case of `CC(C)[C@@H]1NC(=O)[C@H](Cc2c[nH]c3ccccc23)NC(=O)[C@@H]2CCCN2C(=O)[C@@H]2CSCCC(=O)N3CN(CN(C3)C(=O)CCSC[C@H](NC(=O)[C@H](C)N)C(=O)N[C@@H](Cc3ccccc3)C(=O)N[C@@H](Cc3ccccc3)C(=O)N3CCC[C@H]3C(=O)N[C@@H](CCCCNC(=N)N)C(=O)N2)C(=O)CCSC[C@@H](C(=O)N[C@@H](C)C(N)=O)NC(=O)CNC(=O)[C@H](CCC(=O)O)NC1=O` [Peptide 28] (HELM PEPTIDE1{A.C.F.F.P.[N=C(N)NCCCC[C@H](N[*:1])C(=O)[*:2]].C.P.W.V.E.G.C.A.[am]}|CHEM1{[O=C(CC[*:1])N1CN(C(=O)CC[*:2])CN(C(=O)CC[*:3])C1]}$PEPTIDE1,CHEM1,2:R3-1:R1|PEPTIDE1,CHEM1,7:R3-1:R2|PEPTIDE1,CHEM1,13:R3-1:R3$$$V2.0), the Kd on EcPBP3 [1] turned out to be 1.12 nM. For the same compound, the Ki at EcPBP3 [2] was less than 9 nM.

Turning to `CC(C)[C@@H]1NC(=O)[C@H](Cc2c[nH]c3ccccc23)NC(=O)[C@@H]2CCCN2C(=O)[C@@H]2CSCCC(=O)N3CN(CN(C3)C(=O)CCSC[C@@H](C(=O)N[C@@H](C)C(N)=O)NC(=O)[C@H](Cc3c[nH]cn3)NC(=O)[C@H](CCC(=O)O)NC1=O)C(=O)CCSC[C@H](NC(=O)[C@H](C)N)C(=O)N[C@@H](CO)C(=O)N[C@@H](Cc1ccccc1)C(=O)N1CCC[C@H]1C(=O)N[C@@H](CCCCNC(=N)N)C(=O)N2` [Peptide 53] (HELM PEPTIDE1{A.C.S.F.P.[N=C(N)NCCCC[C@H](N[*:1])C(=O)[*:2]].C.P.W.V.E.H.C.A.[am]}|CHEM1{[O=C(CC[*:1])N1CN(C(=O)CC[*:2])CN(C(=O)CC[*:3])C1]}$PEPTIDE1,CHEM1,2:R3-1:R1|PEPTIDE1,CHEM1,7:R3-1:R2|PEPTIDE1,CHEM1,13:R3-1:R3$$$V2.0), at EcPBP3 [2], the Ki is less than 9 nM.

The term Kd denotes the concentration at which binding is half-saturated. In general, Ki refers to a measure of affinity in units of concentration, obtained from inhibition or displacement.
